Biological target: hTREM2 (Homo sapiens, UniProt Q9NZC2)
Experiment: Phospho-Syk AlphaScreen/AlphaLISA assay in TREM2 and DAP12 overexpressing HEK293 cells (Example A1)
Assay type: cell-based
Set-up: expressed in transfected cells
Conditions: HEK293 cells; for EC50: read-out: hTREM2 EC50
How it was run: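 Single-cell-cloned HEK293 stably overexpressing TREM2 and DAP12, plated 20,000 cells/well for 20 h, then exposed to compounds (1% DMSO) 45 min at room temperature. Lysates probed for phospho-Syk by AlphaLISA sandwich (anti-pSyk, biotinylated anti-Syk); signal normalized to percent of control (100 nM anti-TREM2 antibody vs isotype) and fitted by 4-parameter logistic.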

Chain of hTREM2 (Q9NZC2 19-230): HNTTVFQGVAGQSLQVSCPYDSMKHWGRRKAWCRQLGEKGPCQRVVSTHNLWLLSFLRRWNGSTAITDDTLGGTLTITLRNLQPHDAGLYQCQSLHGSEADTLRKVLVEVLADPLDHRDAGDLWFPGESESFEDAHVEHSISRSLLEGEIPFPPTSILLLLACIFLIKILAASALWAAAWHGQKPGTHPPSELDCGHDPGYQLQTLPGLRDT
Chain of hTREM2 (O43914 22-113 partner): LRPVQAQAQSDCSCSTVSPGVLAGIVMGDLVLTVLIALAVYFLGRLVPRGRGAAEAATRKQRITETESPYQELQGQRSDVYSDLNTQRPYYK

Compound | Emax | EC50
Cc1nc2cc(N3CCO[C@@H](c4cnn(C)c4)C3)nc(C3CCCC3)c2c(=O)n1C [Example 160, 5-cyclopentyl-2,3-dimethyl-7-((2S)-2-(1-methyl-1H-pyrazol-4-yl)-4-morpholinyl)pyrido[4,3-d]pyrimidin-4(3H)-one] | +++ (Emax>200 and ≤300) | 500 to 3000 nM
Cc1nc2cc([C@@H]3CCO[C@@H](c4cccnc4)C3)nc(-c3ccc(Cl)cc3F)c2c(=O)n1C (relative stereo) [Example 176, 5-(4-chloro-2-fluorophenyl)-2,3-dimethyl-7-((2R,4R)-2-(3-pyridinyl)tetrahydro-2H-pyran-4-yl)pyrido[4,3-d]pyrimidin-4(3H)-one and 5-(4-chloro-2-fluorophenyl)-2,3-dimethyl-7-((2S,4S)-2-(3-pyridinyl)tetrahydro-2H-pyran-4-yl)pyrido[4,3-d]pyrimidin-4(3H)-one] | ++++ (Emax>300) | 500 to 3000 nM
Cc1nc2cc(N3CCO[C@@H](c4cnn(C)c4)C3)nc(-c3ccc(F)cc3F)c2c(=O)n1C [Example 8, 5-(2,4-difluorophenyl)-2,3-dimethyl-7-((2S)-2-(1-methyl-1H-pyrazol-4-yl)-4-morpholinyl)-pyrido[4,3-d]pyrimidin-4(3H)-one] | ++++ (Emax>300) | 50 to 500 nM
Cc1nc2cc(N3CCO[C@H](c4noc(C5CC5)n4)C3)nc(-c3ccc(Cl)cc3F)c2c(=O)n1C (single isomer, unassigned) [Example 85] | ++++ (Emax>300) | 3000 to 100000 nM
Cc1nc2cc(N3CCO[C@H](c4ccsc4)C3)nc(-c3ccc(Cl)cc3F)c2c(=O)n1C (single isomer, unassigned) [Example 54] | ++++ (Emax>300) | 50 to 500 nM
Cc1noc([C@H]2CCCN(c3cc4nc(C)n(C)c(=O)c4c(-c4ccc(Cl)cc4F)n3)C2)n1 [Example 230, (S)-5-(4-chloro-2-fluorophenyl)-2,3-dimethyl-7-(3-(3-methyl-1,2,4-oxadiazol-5-yl)piperidin-1-yl)pyrido[4,3-d]pyrimidin-4(3H)-one] | ++++ (Emax>300) | 500 to 3000 nM
CCCn1c(C)nc2cc(N3CCO[C@H](c4ccnn4C)C3)nc(-c3ccc(Cl)cc3F)c2c1=O [Example 184, (S)-5-(4-chloro-2-fluorophenyl)-2-methyl-7-(2-(1-methyl-1H-pyrazol-5-yl)morpholino)-3-propylpyrido[4,3-d]pyrimidin-4(3H)-one] | ++++ (Emax>300) | 50 to 500 nM
Cc1nc2cc(N3CCC[C@@H](c4cnn(C)c4)C3)nc(-c3ccc(Cl)cc3F)c2c(=O)n1C (single isomer, unassigned) [Example 99] | ++++ (Emax>300) | 50 to 500 nM
CCCn1c(C)nc2cc(N3CCOC(c4cnn(C)c4)C3)nc(-c3ncc(Cl)cc3F)c2c1=O (stereo not shown) [Example 21, 5-(5-chloro-3-fluoro-2-pyridinyl)-2-methyl-7-(2-(1-methyl-1H-pyrazol-4-yl)-4-morpholinyl)-3-propylpyrido-[4,3-d]pyrimidin-4(3H)-one] | ++++ (Emax>300) | 50 to 500 nM
Cc1nc2cc(N3CCC(c4cccnc4)C3)nc(-c3ccc(Cl)cc3F)c2c(=O)n1C (stereo not shown) [Example 121, 5-(4-chloro-2-fluorophenyl)-2,3-dimethyl-7-(3-(3-pyridinyl)-1-pyrrolidinyl)pyrido[4,3-d]pyrimidin-4(3H)-one] | ++++ (Emax>300) | 50 to 500 nM
Cc1nc([C@@H]2CN(c3cc4nc(C)n(C)c(=O)c4c(-c4ccc(Cl)cc4F)n3)CCO2)no1 (single isomer, unassigned) [Example 57] | +++ (Emax>200 and ≤300) | 500 to 3000 nM
Cc1nc2cc(N3CC[C@@H](C(F)(F)F)C3)nc(-c3ccc(Cl)cc3F)c2c(=O)n1C [Example 256, (R)-5-(4-chloro-2-fluorophenyl)-2,3-dimethyl-7-(3-(trifluoromethyl)pyrrolidin-1-yl)pyrido[4,3-d]pyrimidin-4(3H)-one] | ++++ (Emax>300) | 3000 to 100000 nM
COc1cc([C@H]2CN(c3cc4nc(C)n(C)c(=O)c4c(-c4ccc(Cl)cc4F)n3)CCO2)ccn1 (single isomer, unassigned) [Example 82] | ++++ (Emax>300) | < 50 nM
COCCn1cc([C@H]2CN(c3cc4nc(C)n(C)c(=O)c4c(-c4ccc(Cl)cc4F)n3)CCO2)cn1 [Example 127, 5-(4-chloro-2-fluorophenyl)-7-((2S)-2-(1-(2-methoxyethyl)-1H-pyrazol-4-yl)-4-morpholinyl)-2,3-dimethylpyrido[4,3-d]pyrimidin-4(3H)-one] | ++++ (Emax>300) | 50 to 500 nM
Cc1nc2cc(N3CCO[C@@H](c4cnn(C)c4)C3)nc(-c3ccc(Cl)cc3F)c2c(=O)n1C1CC1 [Example 20, 5-(4-chloro-2-fluorophenyl)-3-cyclopropyl-2-methyl-7-((2S)-2-(1-methyl-1H-pyrazol-4-yl)-4-morpholinyl)pyrido[4,3-d]pyrimidin-4(3H)-one] | ++++ (Emax>300) | 50 to 500 nM
Cc1nc([C@@H]2CN(c3cc4nc(C)n(C)c(=O)c4c(-c4ccc(Cl)cc4F)n3)CCO2)no1 [Example 200, (S)-5-(4-chloro-2-fluorophenyl)-2,3-dimethyl-7-(2-(5-methyl-1,2,4-oxadiazol-3-yl)morpholino)pyrido[4,3-d]pyrimidin-4(3H)-one] | ++++ (Emax>300) | 50 to 500 nM
Cc1nc2cc(N3CCO[C@H](c4cccnc4)C3)nc(-c3ccc(Cl)cc3F)c2c(=O)n1C (single isomer, unassigned) [Example 47] | ++++ (Emax>300) | 3000 to 100000 nM
COc1ccc([C@H]2CN(c3cc4nc(C)n(C)c(=O)c4c(-c4ccc(Cl)cc4F)n3)CCO2)cc1 (single isomer, unassigned) [Example 78] | ++++ (Emax>300) | 50 to 500 nM
CCn1c(C)nc2cc(N3CCO[C@@H](c4noc(C)n4)C3)nc(-c3ccc(Cl)cc3F)c2c1=O [Example 148, 5-(4-chloro-2-fluorophenyl)-3-ethyl-2-methyl-7-((2R)-2-(5-methyl-1,2,4-oxadiazol-3-yl)-4-morpholinyl)pyrido[4,3-d]pyrimidin-4(3H)-one] | ++++ (Emax>300) | 3000 to 100000 nM
Cc1nc2cc(N3C[C@@H](C)O[C@@H](C4CC4)C3)nc(-c3ccc(Cl)cc3F)c2c(=O)n1C (single isomer, unassigned) [Example 34] | ++++ (Emax>300) | 500 to 3000 nM
Cc1nc2cc(N3CCO[C@@H](c4cnn(C5CC(F)(F)C5)c4)C3)nc(-c3ccc(Cl)cc3F)c2c(=O)n1C [Example 131, 5-(4-chloro-2-fluorophenyl)-7-((2S)-2-(1-(3,3-difluorocyclobutyl)-1H-pyrazol-4-yl)-4-morpholinyl)-2,3-dimethylpyrido[4,3-d]pyrimidin-4(3H)-one] | +++ (Emax>200 and ≤300) | < 50 nM
Cc1nc2cc(N3CCO[C@@H](c4cnn(C)c4)C3)nc(-c3ccc(C(F)(F)F)nc3)c2c(=O)n1C [Example 17, 2,3-dimethyl-7-((2S)-2-(1-methyl-1H-pyrazol-yl)-4-morpholinyl)-5-(6-(trifluoromethyl)-3-pyridinyl)pyrido[4,3-d]pyrimidin-4(3H)-one] | – | 500 to 3000 nM
